The values below come from patent publication US20050090524A1, “Novel adamantane derivatives” (priority 2002, published 2005).

The assay deals with T1, P2X7 receptor (Homo sapiens, UniProt Q99572).
T1 construct: 200 μl of a suspension of THP-1 cells; endogenous in cells; host or cells: THP-1 cells
T1 sequence (Q99572 1-595): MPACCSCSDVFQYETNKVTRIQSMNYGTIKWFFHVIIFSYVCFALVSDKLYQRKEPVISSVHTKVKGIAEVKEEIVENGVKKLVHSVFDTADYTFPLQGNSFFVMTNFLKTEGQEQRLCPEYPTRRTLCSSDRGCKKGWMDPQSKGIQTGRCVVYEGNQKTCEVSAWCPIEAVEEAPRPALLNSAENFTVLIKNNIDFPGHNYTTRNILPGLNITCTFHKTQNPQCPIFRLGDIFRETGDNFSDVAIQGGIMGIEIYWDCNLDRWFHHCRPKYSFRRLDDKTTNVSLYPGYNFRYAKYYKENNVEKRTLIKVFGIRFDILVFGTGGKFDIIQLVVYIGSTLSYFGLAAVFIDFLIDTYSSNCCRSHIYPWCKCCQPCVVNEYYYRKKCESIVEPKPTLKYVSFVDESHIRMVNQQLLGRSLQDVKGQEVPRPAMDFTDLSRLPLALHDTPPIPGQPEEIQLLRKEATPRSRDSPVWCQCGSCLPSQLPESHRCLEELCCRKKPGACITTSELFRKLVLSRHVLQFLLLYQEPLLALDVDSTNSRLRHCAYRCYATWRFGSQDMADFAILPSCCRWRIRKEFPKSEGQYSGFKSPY
Put plainly: P2X7 receptor antagonist test: bbATP-induced ethidium bromide fluorescence in THP-1 cells. In kind it is cell-based. The following applies: bbATP agonist, 37° C. for one hour, negative logarithm of concentration reducing bbATP agonist activity by 50%. From the text: Certain compounds such as benzoylbenzoyl adenosine triphosphate (bbATP) are known to be agonists of the P2X7 receptor, effecting the formation of pores in the plasma membrane (Drug Development Research (1996), 37(3), p.126). Consequently, when the receptor is activated using bbATP in the presence of ethidium bromide (a fluorescent DNA probe), an increase in the fluorescence of intracellular DNA-bound ethidium bromide is observed. The increase in fluorescence can be used as a measure of P2X7 receptor activation and therefore to quantify the effect of a compound on the P2X7 receptor.
In this manner, each of the title compounds of the Examples was tested for antagonist activity at the P2X7 receptor. Thus, the test was performed in 96-well flat bottomed microtitre plates, the wells being filled with 250 μl of test solution comprising 200 μl of a suspension of THP-1 cells (2.5×10^6 cells/ml) containing 10^−4M ethidium bromide, 25 μl of a high potassium buffer solution containing 10^−5M bbATP, and 25 μl of the high potassium buffer solution containing 3×10^−5M test compound. The plate was covered with aplastics sheet and incubated at 37° C. for one hour. The plate was then read in a Perkin-Elmer fluorescent plate reader, excitation 520 nm, emission 595 nm, slit widths: Ex 15 nm, Em 20 nm. For the purposes of comparison, bbATP (a P2X7 receptor agonist) and pyridoxal 5-phosphate (a P2X7 receptor antagonist) were used separately in the test as controls. From the readings obtained, a pIC50 figure was calculated for each test compound, this figure being the negative logarithm of the concentration of test compound necessary to reduce the bbATP agonist activity by 50%.

Where a name gives a salt, the structure may show the parent alone.

Compound `CNCCCN(C)c1ccc2c(C(=O)NCC34CC5CC(CC(C5)C3)C4)c(Cl)ccc2n1` [Example 208, N-(1-Adamantylmethyl)-6-chloro-2-{methyl[3-(methylamino)propyl]amino}quinoline-5-carboxamide] showed an IC50 of 35.5 nM.
Under `O=C(NCC12CC3CC(CC(C3)C1)C2)c1c(Cl)ccc2nc(CN3CCNCC3)ccc12` [Example 170, N-(1-Adamantylmethyl)-6-chloro-2-(piperazin-1-ylmethyl)quinoline-5-carboxamide Hydrochloride] stands 26.3 nM; under `O=C(CC12CC3CC(CC(C3)C1)C2)Nc1cccc2nc(NCCCO)ccc12` [Example 6, 2-(1-Adamantyl)-N-{2-[(3-hydroxypropyl)amino]quinolin-5-yl}acetamide], 8.91 nM.
In turn, `CNCCCc1ccc2c(C(=O)NCC34CC5CC(CC(C5)C3)C4)c(Cl)ccc2n1` [Example 167, N-(1-Adamantylmethyl)-6-chloro-2-[3-(methylamino)propyl]quinoline-5-carboxamide Sesquihydrochloride] showed a half-inhibitory concentration (IC50) of 5.01 nM.
